Reference: PMC6271731, “Multitarget Molecular Hybrids of Cinnamic Acids” (Molecules, 2014)
Read-outs that look alike come from different tables or passages of the source. Marks after values point to notes of the source that are not given here.

Tests used:
[1] = Lipophilicity as RM values by RP-TLC; format: physicochemical; conditions: methanol/water 70/30, 24 °C, average of at least five measurements
Description: Since lipophilicity is a significant physicochemical property determining distribution, bioavailability, metabolic activity and elimination, we tried to determine experimentally the lipophilicity of the new substances by a RPTLC method as RM values (Table 1) and to compare them with the corresponding theoretically calculated clog p values in n-octanol-buffer. This is considered to be a reliable, fast and convenient method for expressing lipophilicity. Lipophilicity (Table 2), was theoretically calculated as Clog p values in n-octanol-buffer by the CLOGP Programme of Biobyte Corp..
Reversed phase TLC (RP-TLC) was performed on silica gel plates impregnated with 5% (v/v) liquid paraffin in light petroleum ether. The mobile phase was a methanol/water mixture (70/30, v/v). The plates were developed in closed chromatography tanks saturated with the mobile phase at 24 °C. Spots were detected under UV light. RM values were determined from the corresponding Rf values (from five individual measurements) using the equation RM = log [(1/Rf) − 1] (Table 1).

[2] = Inhibition of linoleic acid lipid peroxidation (AAPH); conditions: % inhibition at 100 μM; pH 7.4, 37 °C
Description: Production of conjugated diene hydroperoxide by oxidation of sodium linoleate in an aqueous dispersion is monitored at 234 nm. AAPH is used as a free radical initiator [12, 24]. Ten microlitres of the 16 mM sodium linoleate solution was added to the UV cuvette containing 930 μL of 0.05 M phosphate buffer, pH 7.4 prethermostated at 37 °C. The oxidation reaction was initiated at 37 °C under air by the addition of 40 mM AAPH solution (50 μL). Ten μL of the tested compounds were added in the mixture. Lipid oxidation was measured in the presence of the same level of DMSO. The rate of oxidation at 37 °C was monitored by recording the increase in absorption at 234 nm caused by conjugated diene hydroperoxides. The results were compared to the appropriate standard inhibitor trolox (63%) (Table 1).

soybean lipoxygenase = target: T1, soybean lipoxygenase (Glycine max, UniProt P08170); experiment: Soybean lipoxygenase inhibition in vitro; format: biochemical; conditions: for inhibition at 100 µM: read-out: % LOX Inh.
T1 construct: purchased Sigma Chemical, Co. (St. Louis, MO, USA)
T1 sequence (P08170 1-839): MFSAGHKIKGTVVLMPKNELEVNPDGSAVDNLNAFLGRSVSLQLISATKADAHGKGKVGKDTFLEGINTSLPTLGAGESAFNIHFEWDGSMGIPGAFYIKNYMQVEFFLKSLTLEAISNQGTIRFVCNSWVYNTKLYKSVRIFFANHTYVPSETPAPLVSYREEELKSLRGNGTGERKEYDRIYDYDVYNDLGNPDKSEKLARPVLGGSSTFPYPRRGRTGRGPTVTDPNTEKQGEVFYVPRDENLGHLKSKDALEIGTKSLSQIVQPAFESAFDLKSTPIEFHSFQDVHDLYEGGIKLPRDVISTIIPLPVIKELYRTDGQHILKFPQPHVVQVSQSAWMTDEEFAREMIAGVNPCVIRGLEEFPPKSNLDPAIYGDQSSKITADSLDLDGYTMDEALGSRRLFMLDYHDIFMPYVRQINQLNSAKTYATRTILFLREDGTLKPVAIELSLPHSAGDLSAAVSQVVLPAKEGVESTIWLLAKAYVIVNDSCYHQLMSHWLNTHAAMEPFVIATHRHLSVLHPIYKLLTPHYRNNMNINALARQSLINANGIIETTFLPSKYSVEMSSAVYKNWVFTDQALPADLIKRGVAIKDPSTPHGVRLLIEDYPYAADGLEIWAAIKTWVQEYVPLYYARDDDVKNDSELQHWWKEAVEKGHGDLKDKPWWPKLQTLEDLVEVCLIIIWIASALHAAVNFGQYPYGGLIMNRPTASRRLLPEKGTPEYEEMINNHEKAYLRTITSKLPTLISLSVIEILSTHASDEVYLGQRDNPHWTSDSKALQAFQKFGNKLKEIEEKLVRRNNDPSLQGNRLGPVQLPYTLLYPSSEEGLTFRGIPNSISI
Description: DMSO solution of the tested compound was incubated with sodium linoleate (0.1 mM) and 0.2 mL of soybean lipoxygenase solution (1/9 × 10^−4 w/v in saline) in buffer pH 9 (tris) and at room temperature. […] The results are given in Table 1 expressed as IC50 values or % inhibition at 100 μM.

[3] = target: T2, pancreatic bovine trypsin (Bos taurus, UniProt P00760); experiment: Inhibition of trypsin induced proteolysis in vitro; format: biochemical; conditions: for IC50: read-out: IC50 μM Trypsin Inh.; for % Trypsin Inh. / inhibition at 100 µM: % inhibition at 100 μM; for inhibition at 100 µM: read-out: % Trypsin Inh.
T2 construct: purchased Sigma Chemical, Co. (St. Louis, MO, USA)
T2 sequence (P00760 24-246): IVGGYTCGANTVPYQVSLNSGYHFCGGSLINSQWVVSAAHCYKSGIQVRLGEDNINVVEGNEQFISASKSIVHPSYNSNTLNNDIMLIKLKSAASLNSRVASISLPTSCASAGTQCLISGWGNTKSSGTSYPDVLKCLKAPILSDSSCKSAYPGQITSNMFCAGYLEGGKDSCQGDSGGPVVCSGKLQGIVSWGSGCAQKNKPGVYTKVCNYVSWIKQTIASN
Description: All chemicals, solvents, chemical and biochemical reagents were of analytical grade and purchased from commercial sources (Merck, Merck KGaA, Darmstadt, Germany, Fluka Sigma-Aldrich Laborchemikalien GmbH, Hannover, Germany, Alfa Aesar, Karlsruhe, Germany and Sigma, St. Louis, MO, USA). Soybean lipoxygenase, pancreatic bovine trypsin, sodium linoleate, free radical DPPH and 2,2-azinobis-2-methyl-propanimidamine HCl (AAPH) were obtained from Sigma Chemical, Co. (St. Louis, MO, USA), carrageenin, type K, was commercially available. All starting materials were obtained from commercial sources and used without further purification.
The test was carried out according to a modified Kunitz method. Bovine albumin was used as substrate for trypsin. The reaction mixture consisted of 0.075 mg/mL trypsin (200 μL) and 780 μL of phosphate buffer pH 7.6 (including the tested compounds (20 μL in DMSO, final concentration 100 μM) preincubated at 37 °C for 20 min and then 1 mL of albumin (stock solution 6 g/100 mL in phosphate buffer 0.1 M, pH 7.6) was added and incubated at 37 °C for 30 min. After the incubation 1 mL of 5% trichloroacetic acid was added to the incubated solution to stop the enzyme’s reaction and allowed to set at room temperature for 1 h. Then the solution was filtered by filter paper and the absorption of the filtered solution was measured at 280 nm. Salicylic acid was used as a reference compound (Table 1).

[4] = tested on: acetic acid-induced writhing; experiment: Antinociceptive screen (writhing test); format: in vivo, Wistar rats; conditions: i.p. 30 min before 0.6% acetic acid, writhes counted over 30 min; for inhibition in vivo at 0.01 mmol/0.1 kg: Rattus norvegicus, ip, 0.5 h, read-out: % ANA (in vivo analgesic-antinociceptive activity)
Description: Anti-inflammatory tests were conducted on Fisher-344 inbred rats of ca. 200 g body weight whereas antinociception and motor and sensory functions after sciatic nerve crash were performed on Wistar rats. Both sexes were used. Females pregnant were excluded. Each group was composed of 6 animals. The animals, which have been bred in our laboratory, were housed under standard conditions and received a diet of commercial food pellets and water ad libitum during the maintenance. Our studies were carried out in accordance with recognised guidelines on animal experimentation.
[…] Controls received the liquid vehicle only. All the in vivo experiments were repeated at least in triplicate and were subjected to statistic analysis using the student’s t-test.
The writhing reflex was used. The test compounds were administered i.p. 30 min prior to the i.p. administration of 1 mL/100 g body weight of 0.6% acetic acid. […] After 5 min, the number of stretches characterized by repeated contractions of the abdominal musculature accompanied by extension of the hind limbs was counted every 5 min for the next 30 min. […] The % antinociceptive activity (a:a) was calculated as: % a:a = (n − n'/n) × 100 (a: a analgesic activity, n average number of writhes of control group, n' average number in the test group).

[5] = sodium linoleate 0.1 mM, tris buffer pH 9, room temperature
[6] = bovine albumin substrate, pH 7.6, 37 °C
[7] = sodium linoleate 0.1 mM, tris buffer pH 9, room temperature, read-out: IC50 μM LOX Inh.

Row | Structure (SMILES) | RM (±S.D.) [1] | AAPH % (% inhibition of lipid peroxidation) [2] | IC50 [3, 6] | IC50 (soybean lipoxygenase) | inhibition in vivo at 0.01 mmol/0.1 kg [4] | also measured
1 | O=C(/C=C/c1cccc(Oc2ccccc2)c1)Nc1ccc(O)cc1 [Compound 2f, (E)-N-(4-Hydroxyphenyl)-3-(3-phenoxyphenyl)acrylamide] | −0.116 ± 0.003 | 100% | 26 µM | – | – | IC50 μM LOX Inh. (soybean lipoxygenase; [5]): low or no activity
2 | CC(=O)Nc1ccc(OC(=O)/C=C/c2cccs2)cc1 [Compound 4a, (E)-4-Acetamidophenyl 3-(thiophen-2-yl)acrylate] | −0.826 ± 0.05 | 95% | – | – | – | inhibition at 100 µM (soybean lipoxygenase): 16%; IC50 μM LOX Inh. (soybean lipoxygenase; [5]): low or no activity; IC50 μM Trypsin Inh. [3, 6]: low or no activity
3 | Cc1cc(=O)oc2cc(OC(=O)/C=C/c3cccc(Oc4ccccc4)c3)ccc12 [Compound 2d, (E)-4-Methyl-2-oxo-2H-chromen-7-yl 3-(3-phenoxyphenyl)acrylate] | 0.558 ± 0.040 | 97% | 10 µM | 74 µM | 66% | –
4 | Cc1c(C)c2c(c(C)c1O)CCC(C)(C(=O)O)O2 (stereo not shown) [Trolox, reference compound] | – | 63% | – | – | – | –
5 | Nc1cccc(O)c1 [m-AP, m-aminophenol, reference compound] | – | 95% | – | – | – | % Trypsin Inh. [3]: 90%
6 | O=C(O)/C=C/c1ccccc1 [I] | −0.485 ± 0.044 | 78% | 55 µM | 56 µM | 60.2% | –
7 | CC(=O)Nc1ccc(OC(=O)/C=C/c2ccccc2)cc1 [Compound 1a, (E) 4-Acetamidophenyl cinnamate] | −0.725 ± 0.009 | 95% | – | – | 77.3% | IC50 (soybean lipoxygenase; [7]): 10 µM; inhibition at 100 µM [3]: 34%
8 | CC(=O)Nc1ccc(OC(=O)/C=C/c2ccc(OCc3ccc(Br)cc3)cc2)cc1 [Compound 3a, (E)-4-Acetamidophenyl 3-(4-((4-bromobenzyl)oxy)phenyl)acrylate] | −0.24 ± 0.009 | 96% | 100 µM | 55 µM | 52% | –
9 | O=c1ccc2ccccc2o1 [Coumarin, reference compound] | – | – | – | – | – | inhibition at 100 µM [3]: 13%
10 | CCOC(=O)c1ccc(NC(=O)/C=C/c2cccc(Oc3ccccc3)c2)cc1 [Compound 2h, (E)-Ethyl 4-(3-(3-phenoxyphenyl)acrylamido)benzoate] | 0.399 ± 0.045 | 64% | 50 µM | 100 µM | – | –
11 | Nc1ccc(O)cc1 [p-AP, p-aminophenol, reference compound] | – | 99% | – | – | – | % Trypsin Inh. [3]: 87%
12 | O=C(/C=C/c1cccc(Oc2ccccc2)c1)Oc1ccc2ccc(=O)oc2c1 [Compound 2c, (E)-2-Oxo-2H-chromen-7-yl 3-(3-phenoxyphenyl)acrylate] | 0.444 ±0.008 | 93% | 10 µM | – | 70.4% | inhibition at 100 µM (soybean lipoxygenase): 20%; IC50 μM LOX Inh. (soybean lipoxygenase; [5]): low or no activity
13 | CC(=O)Nc1cccc(OC(=O)/C=C/c2cccc(Oc3ccccc3)c2)c1 [Compound 2e, 3-Acetamidophenyl (E)-3-(3-phenoxyphenyl)acrylate] | 0.407 ± 0.015 | 60% | – | – | 98.1% | IC50 (soybean lipoxygenase; [7]): 0.34 µM; % ANA (in vivo analgesic-antinociceptive activity) ([4]; 0.01 mmol/0.1 kg): 98.1 ** %
14 | Cc1cc(=O)oc2cc(O)ccc12 [Hymechromone, 4-methyl-7-hydroxycoumarin, reference compound] | – | 93% | – | – | – | inhibition at 100 µM [3]: 60%
15 | CCOC(=O)c1ccc(N)cc1 [Benzocaine, reference compound] | – | 25% | – | – | – | inhibition at 100 µM [3]: 28%
16 | Cc1cc(=O)oc2cc(OC(=O)/C=C/c3ccc(OCc4ccc(Br)cc4)cc3)ccc12 [Compound 3b, (E)-4-Methyl-2-oxo-2H-chromen-7-yl-3-(4-((4-bromobenzyl)oxy)phenyl)acrylate] | −0.602 ± 0.01 | 90% | 5 µM | 50 µM | – | –
17 | O=C(/C=C/c1cccc(Oc2ccccc2)c1)Nc1cccc(OC(=O)/C=C/c2cccc(Oc3ccccc3)c2)c1 [Compound 2g] | 1.092 ± 0.044 | 60% | 43.6 µM | 72 µM | – | –
18 | O=c1ccc2ccc(O)cc2o1 [Compound 7-HC, 7-hydroxycoumarin, reference compound] | – | 92% | 100 µM | – | – | –
